Laboratory results from patent US7101568B2, “Methods and compositions for treating solid tumors” (Guilford Pharmaceuticals, Inc., priority 1999, dated 2006).

Experiments:
A549 tumor nodules = assay: Murine tumor nodule model, A549 tumor volume doubling time; type: in vivo, mouse; settings: A549, 24 mg/kg paclitaxel
Experimental: Athymic nude Balb/c mice were engrafted with human non-small cell lung cancer cell lines (A549 and H1299, both of which were obtained from the American Type Culture Collection).
(§1) The cells were grown to confluence in DMEM/F12 medium (Mediatech, Herndon, Va.) supplemented with 10% fetal bovine serum (“growth medium”) under antibiotic-free conditions at 37° in a 5% CO2 atmosphere. After growing under standard these tissue culture conditions, the cells were enzymatically detached, enumerated, and the concentration was adjusted as required.
(§2) The cells were mixed 1:1 with Matrigel™ as an enhancer for engraftment, and 2×10^6 cells were injected subcutaneously on the flanks. Tumors were allowed to grow until achieving a volume of approximately 200-400 mm^3, as determined by the formula: Tumor volume=(length)×(width)×(height) The dimensions of the tumor on each test animal were measured directly with calipers.
Various formulations of paclitaxel were administered to the test animals bearing tumors, either systemically or intratumorally. Each animal was weighed at the time of treatment so that dosages could be adjusted to achieve the mg/kg amounts reported. Systemic administration was achieved by injecting the test composition into the intraperitoneal cavity of the test animal. For intraperitoneal (“IP”) injections, the animals received a total injection volume of approximately 1 mL.
Intratumoral administration (“IT”), on the other hand, was accomplished by the following procedure: • (1) injecting a single volume of about 100 μl (0.1 mL) the test composition into the center of the tumor nodule with a 21-25 gauge needle over a time period of about 10-20 seconds; • (2) infusing the volume over about 10-15 seconds, and then leaving the needle in place for an additional time of about 10-20 seconds; and • (3) withdrawing the needle. Following the treatments, all mice were tagged, and the tumors were measured three times weekly with calipers. Test animals were also weighed once weekly.
The tumor volume doubling time was determined from the tumor measurements in all treatment groups.

H1299 tumor nodules = assay: Murine tumor nodule model, H1299 tumor volume doubling time; type: in vivo, mouse; settings: H1299, 24 mg/kg paclitaxel
Experimental: A murine tumor nodule model, a widely used and accepted model for investigating the efficacy of therapies for solid tumors, was used to establish the utility of sustained release for solid tumors. Athymic nude Balb/c mice were engrafted with human non-small cell lung cancer cell lines (A549 and H1299, both of which were obtained from the American Type Culture Collection).
as §1, §2
Various formulations of paclitaxel were administered to the test animals bearing tumors, either systemically or intratumorally. Each animal was weighed at the time of treatment so that dosages could be adjusted to achieve the mg/kg amounts reported. […]
Intratumoral administration (“IT”), on the other hand, was accomplished by the following procedure: • (1) injecting a single volume of about 100 μl (0.1 mL) the test composition into the center of the tumor nodule with a 21-25 gauge needle over a time period of about 10-20 seconds; • (2) infusing the volume over about 10-15 seconds, and then leaving the needle in place for an additional time of about 10-20 seconds; and • (3) withdrawing the needle. Following the treatments, all mice were tagged, and the tumors were measured three times weekly with calipers. […]
Time-dependent changes in H1299 tumor nodule growth and/or sizes following different treatments were determined. […]

[1] = intratumoral, listed as conventional paclitaxel

CC(=O)O[C@H]1C(=O)[C@@]2(C)[C@H]([C@H](OC(=O)c3ccccc3)[C@]3(O)C[C@H](OC(=O)[C@H](O)[C@@H](NC(=O)c4ccccc4)c4ccccc4)C(C)=C1C3(C)C)[C@]1(OC(C)=O)CO[C@@H]1C[C@@H]2O [conventionally formulated paclitaxel, paclitaxel]
tumor volume doubling time (A549 tumor nodules; intraperitoneal): 11.5 ± 2.3 days | tumor volume doubling time (A549 tumor nodules; intratumoral): 10.2 ± 4.7 days | tumor volume doubling time (A549 tumor nodules; [1]): 10 days | tumor volume doubling time (H1299 tumor nodules; intraperitoneal): 12 ± 1.9 days | tumor volume doubling time (H1299 tumor nodules; intratumoral): 11.2 ± 1.9 days | tumor volume doubling time (H1299 tumor nodules; [1]): 11 days
